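Assay format: 96-well plates, 48-hour exposure. TGI denotes the concentration required for complete inhibition of growth.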
Columns and labels:
Assay in all cases: DTP human tumour cell line panel, 48 h
786-0 renal = system: 786-0 renal
A498 renal = system: A498 renal
A549 NSCLC = system: A549 NSCLC
ACHN renal = system: ACHN renal
BT-549 breast = system: BT-549 breast
CAKI-1 renal = system: CAKI-1 renal
CCRF-CEM leukemia = system: CCRF-CEM leukemia
COLO 205 colon = system: COLO 205 colon
DU-145 prostate = system: DU-145 prostate
EKVX NSCLC = system: EKVX NSCLC
HCC-2998 colon = system: HCC-2998 colon
HCT-116 colon = system: HCT-116 colon
HCT-15 colon = system: HCT-15 colon
HL-60(TB) leukemia = system: HL-60(TB) leukemia
HOP-62 NSCLC = system: HOP-62 NSCLC
HOP-92 NSCLC = system: HOP-92 NSCLC
HS 578T breast = system: HS 578T breast
HT29 colon = system: HT29 colon
IGROV1 ovarian = system: IGROV1 ovarian
K-562 leukemia = system: K-562 leukemia
KM12 colon = system: KM12 colon
LOX IMVI melanoma = system: LOX IMVI melanoma
M14 melanoma = system: M14 melanoma
MALME-3M melanoma = system: MALME-3M melanoma
MCF7 breast = system: MCF7 breast
MDA-MB-231 breast = system: MDA-MB-231 breast
MDA-MB-435 = system: MDA-MB-435
MDA-N = system: MDA-N
MOLT-4 leukemia = system: MOLT-4 leukemia
NCI-H226 lung = system: NCI-H226 lung
NCI-H23 lung = system: NCI-H23 lung
NCI-H460 lung = system: NCI-H460 lung
NCI-H522 lung = system: NCI-H522 lung
NCI/ADR-RES ovarian = system: NCI/ADR-RES ovarian
OVCAR-3 ovarian = system: OVCAR-3 ovarian
OVCAR-4 ovarian = system: OVCAR-4 ovarian
OVCAR-5 ovarian = system: OVCAR-5 ovarian
OVCAR-8 ovarian = system: OVCAR-8 ovarian
PC-3 prostate = system: PC-3 prostate
RPMI-8226 leukemia = system: RPMI-8226 leukemia
RXF 393 renal = system: RXF 393 renal
SF-268 CNS = system: SF-268 CNS
SF-295 CNS = system: SF-295 CNS
SF-539 CNS = system: SF-539 CNS
SK-MEL-28 melanoma = system: SK-MEL-28 melanoma
SK-MEL-5 melanoma = system: SK-MEL-5 melanoma
SN12C renal = system: SN12C renal
SNB-19 CNS = system: SNB-19 CNS
SNB-75 CNS = system: SNB-75 CNS
SR leukemia = system: SR leukemia
SW-620 colon = system: SW-620 colon
T-47D breast = system: T-47D breast
TK-10 renal = system: TK-10 renal
U251 CNS = system: U251 CNS
UACC-257 melanoma = system: UACC-257 melanoma
UO-31 renal = system: UO-31 renal

Measured: TGI

Cc1n[nH]c(=O)n1-c1cccnc1
> 100 µM: all assays above
